The target of one test is T1, Pyruvate kinase (Staphylococcus aureus (strain MRSA252), UniProt Q6GG09).
T1 sequence (Q6GG09 whole entry): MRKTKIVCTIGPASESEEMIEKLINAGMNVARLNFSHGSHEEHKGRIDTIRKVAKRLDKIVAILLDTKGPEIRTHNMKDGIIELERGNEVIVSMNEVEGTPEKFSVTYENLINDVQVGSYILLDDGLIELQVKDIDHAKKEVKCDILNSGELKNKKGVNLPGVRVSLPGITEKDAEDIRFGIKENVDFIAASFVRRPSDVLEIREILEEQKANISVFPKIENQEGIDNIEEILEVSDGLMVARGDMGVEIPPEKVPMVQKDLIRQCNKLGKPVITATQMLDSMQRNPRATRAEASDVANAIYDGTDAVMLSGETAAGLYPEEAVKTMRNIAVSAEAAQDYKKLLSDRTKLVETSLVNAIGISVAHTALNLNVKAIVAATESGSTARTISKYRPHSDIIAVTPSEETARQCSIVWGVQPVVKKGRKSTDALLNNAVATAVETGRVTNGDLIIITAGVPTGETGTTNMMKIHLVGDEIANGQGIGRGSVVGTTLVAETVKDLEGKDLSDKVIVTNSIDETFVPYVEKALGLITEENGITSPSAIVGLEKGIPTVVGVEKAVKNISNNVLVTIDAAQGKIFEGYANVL
The experiment in a line: Inhibition of purified methicillin-resistant Staphylococcus aureus N-terminal His-tagged pyruvate kinase by LDH-coupled continuous assay.

Test [1] has as its target T2, Pyruvate kinase (Staphylococcus aureus (strain MRSA252)) (UniProt Q6GG09).
T2 sequence (whole entry): T1 sequence (Q6GG09 whole entry)
As to the kind of experiment: Inhibition of purified methicillin-resistant Staphylococcus aureus N-terminal His-tagged pyruvate kinase at 50 uM by LDH-coupled continuous assay.

Test [2] has as its target T3, Pyruvate kinase PKM (Homo sapiens, UniProt P14618). The experiment in a line: Inhibition of purified human N-terminal His-tagged PK-M1 at 50 uM by LDH-coupled continuous assay.
Target sequence in this assay (P14618 2-531 limits assumed): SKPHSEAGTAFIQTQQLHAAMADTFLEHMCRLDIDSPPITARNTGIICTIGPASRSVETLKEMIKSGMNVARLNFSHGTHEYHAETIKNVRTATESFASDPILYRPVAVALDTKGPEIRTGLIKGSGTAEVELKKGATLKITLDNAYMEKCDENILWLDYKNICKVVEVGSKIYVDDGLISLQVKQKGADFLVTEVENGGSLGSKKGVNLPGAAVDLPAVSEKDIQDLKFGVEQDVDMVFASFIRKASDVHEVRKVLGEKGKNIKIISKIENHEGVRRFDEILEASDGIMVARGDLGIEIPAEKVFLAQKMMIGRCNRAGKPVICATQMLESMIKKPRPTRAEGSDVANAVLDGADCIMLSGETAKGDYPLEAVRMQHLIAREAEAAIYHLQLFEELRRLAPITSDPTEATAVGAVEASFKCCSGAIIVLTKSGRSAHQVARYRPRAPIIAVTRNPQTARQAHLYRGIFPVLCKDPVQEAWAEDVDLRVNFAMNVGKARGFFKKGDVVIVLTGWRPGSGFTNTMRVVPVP
The target in test [3] is T3, Pyruvate kinase PKM. The experiment in a line: Inhibition of purified human N-terminal His-tagged PK-M2 at 50 uM by LDH-coupled continuous assay.
Target sequence in this assay (P14618 2-531 limits assumed): as above
The target of test [4] is T4, Pyruvate kinase PKLR (Homo sapiens, UniProt P30613). The experiment in a line: Inhibition of purified human N-terminal His-tagged PK-R at 50 uM by LDH-coupled continuous assay.
Target sequence in this assay (P30613 whole entry, looked up): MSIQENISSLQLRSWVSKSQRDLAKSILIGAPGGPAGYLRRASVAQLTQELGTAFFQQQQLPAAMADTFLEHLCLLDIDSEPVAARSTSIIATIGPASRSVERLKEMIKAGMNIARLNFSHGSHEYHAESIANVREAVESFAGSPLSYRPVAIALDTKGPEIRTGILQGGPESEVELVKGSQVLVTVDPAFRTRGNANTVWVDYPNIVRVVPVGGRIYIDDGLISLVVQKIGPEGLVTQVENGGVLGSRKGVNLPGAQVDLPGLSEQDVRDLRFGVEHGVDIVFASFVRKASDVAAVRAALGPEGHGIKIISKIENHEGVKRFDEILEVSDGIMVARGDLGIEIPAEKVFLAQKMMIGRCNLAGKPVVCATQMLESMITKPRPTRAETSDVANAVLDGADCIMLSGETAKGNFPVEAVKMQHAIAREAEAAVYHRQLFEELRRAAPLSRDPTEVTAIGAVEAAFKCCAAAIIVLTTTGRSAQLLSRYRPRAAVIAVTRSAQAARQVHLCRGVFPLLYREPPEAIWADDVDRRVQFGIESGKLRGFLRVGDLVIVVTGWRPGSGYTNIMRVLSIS
Test [5] concerns the target T4, Pyruvate kinase PKLR. As to the kind of experiment: Inhibition of purified human N-terminal His-tagged PK-L at 50 uM by LDH-coupled continuous assay.
Target sequence in this assay (P30613 whole entry, looked up): as above
A further test has as its system Staphylococcus aureus. As to the kind of experiment: Antimicrobial activity against Staphylococcus aureus ATCC 29213 after 24 hrs by CLSI microtiter method. The test is classed as functional. The following applies: ATCC 29213, 24 h.
Test [6] deals with T2, Pyruvate kinase (Staphylococcus aureus (strain MRSA252)). The experiment in a line: Inhibition of purified methicillin-resistant Staphylococcus aureus N-terminal His-tagged pyruvate kinase at 100 uM by LDH-coupled continuous assay.
The target in test [7] is T3, Pyruvate kinase PKM. The experiment in a line: Inhibition of purified human N-terminal His-tagged PK-M1 at 100 uM by LDH-coupled continuous assay.
Target sequence in this assay (P14618 2-531 limits assumed): as the sequence (P14618 2-531 limits assumed) above
Test [8] addresses T3, Pyruvate kinase PKM. The experiment in a line: Inhibition of purified human N-terminal His-tagged PK-M2 at 100 uM by LDH-coupled continuous assay.
Target sequence in this assay (P14618 2-531 limits assumed): as above
In test [9] the target is T4, Pyruvate kinase PKLR. The experiment in a line: Inhibition of purified human N-terminal His-tagged PK-R at 100 uM by LDH-coupled continuous assay.
Target sequence in this assay (P30613 whole entry, looked up): as the sequence (P30613 whole entry, looked up) above
Test [10] concerns the target T4, Pyruvate kinase PKLR. The experiment in a line: Inhibition of purified human N-terminal His-tagged PK-L at 100 uM by LDH-coupled continuous assay.
Target sequence in this assay (P30613 whole entry, looked up): as above
Test [11] deals with T3, Pyruvate kinase PKM. As to the kind of experiment: Inhibition of purified human N-terminal His-tagged PK-M1 at 40 uM by LDH-coupled continuous assay.
Target sequence in this assay (P14618 2-531 limits assumed): as the sequence (P14618 2-531 limits assumed) above
Test [12] deals with T3, Pyruvate kinase PKM. As to the kind of experiment: Inhibition of purified human N-terminal His-tagged PK-M2 at 40 uM by LDH-coupled continuous assay.
Target sequence in this assay (P14618 2-531 limits assumed): as above
The target in test [13] is T4, Pyruvate kinase PKLR. As to the kind of experiment: Inhibition of purified human N-terminal His-tagged PK-R at 40 uM by LDH-coupled continuous assay.
Target sequence in this assay (P30613 whole entry, looked up): as the sequence (P30613 whole entry, looked up) above
Test [14] has as its target T4, Pyruvate kinase PKLR. As to the kind of experiment: Inhibition of purified human N-terminal His-tagged PK-L at 40 uM by LDH-coupled continuous assay.
Target sequence in this assay (P30613 whole entry, looked up): as above
The target of test [15] is T2, Pyruvate kinase (Staphylococcus aureus (strain MRSA252)). The following applies: 40 uM.
Description: Inhibition of purified methicillin-resistant Staphylococcus aureus N-terminal His-tagged pyruvate kinase at 40 uM by LDH-coupled continuous assay
The target is the same in test [16]. The experiment in a line: Inhibition of purified methicillin-resistant Staphylococcus aureus N-terminal His-tagged pyruvate kinase at 150 uM by LDH-coupled continuous assay.
Test [17] deals with T3, Pyruvate kinase PKM. As to the kind of experiment: Inhibition of purified human N-terminal His-tagged PK-M1 at 150 uM by LDH-coupled continuous assay.
Test [18] concerns the target T3, Pyruvate kinase PKM. The experiment in a line: Inhibition of purified human N-terminal His-tagged PK-M2 at 150 uM by LDH-coupled continuous assay.
Test [19] addresses T4, Pyruvate kinase PKLR. As to the kind of experiment: Inhibition of purified human N-terminal His-tagged PK-R at 150 uM by LDH-coupled continuous assay.
The target of test [20] is T4, Pyruvate kinase PKLR. As to the kind of experiment: Inhibition of purified human N-terminal His-tagged PK-L at 150 uM by LDH-coupled continuous assay.
For test [21], the target named is T3, Pyruvate kinase PKM. As to the kind of experiment: Inhibition of purified human N-terminal His-tagged PK-M1 by LDH-coupled continuous assay.
Target sequence in this assay (P14618 whole entry): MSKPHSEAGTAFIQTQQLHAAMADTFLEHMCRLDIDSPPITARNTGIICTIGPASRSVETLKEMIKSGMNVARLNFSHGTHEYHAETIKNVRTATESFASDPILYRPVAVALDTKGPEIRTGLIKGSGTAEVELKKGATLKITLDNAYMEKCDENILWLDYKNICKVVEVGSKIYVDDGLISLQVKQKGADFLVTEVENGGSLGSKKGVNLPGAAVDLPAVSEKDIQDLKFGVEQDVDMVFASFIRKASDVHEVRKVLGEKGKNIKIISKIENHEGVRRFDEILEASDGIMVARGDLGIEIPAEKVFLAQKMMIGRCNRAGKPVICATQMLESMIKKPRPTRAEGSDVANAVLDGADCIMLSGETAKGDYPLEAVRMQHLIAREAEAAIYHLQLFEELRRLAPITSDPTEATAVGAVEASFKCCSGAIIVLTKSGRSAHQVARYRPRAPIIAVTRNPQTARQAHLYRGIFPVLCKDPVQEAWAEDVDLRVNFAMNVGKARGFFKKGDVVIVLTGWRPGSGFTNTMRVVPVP
In test [22] the target is T3, Pyruvate kinase PKM. As to the kind of experiment: Inhibition of purified human N-terminal His-tagged PK-M2 by LDH-coupled continuous assay.
Target sequence in this assay (P14618 whole entry): as above
The target in test [23] is T4, Pyruvate kinase PKLR. As to the kind of experiment: Inhibition of purified human N-terminal His-tagged PK-R by LDH-coupled continuous assay.
Target sequence in this assay (P30613 whole entry): as the sequence (P30613 whole entry, looked up) above
Test [24] addresses T4, Pyruvate kinase PKLR. The experiment in a line: Inhibition of purified human N-terminal His-tagged PK-L by LDH-coupled continuous assay.
Target sequence in this assay (P30613 whole entry): as the sequence (P30613 whole entry, looked up) above
Test [25] has as its target T2, Pyruvate kinase (Staphylococcus aureus (strain MRSA252)). The experiment in a line: Inhibition of purified methicillin-resistant Staphylococcus aureus N-terminal His-tagged pyruvate kinase at 10 uM by LDH-coupled continuous assay.
In test [26] the target is T3, Pyruvate kinase PKM. As to conditions: 10 uM; call rule not given here.
Test [27] concerns the target T3, Pyruvate kinase PKM. As to conditions: 10 uM. The source holds these as a separate data set.
Description: Inhibition of purified human N-terminal His-tagged PK-M2 at 10 uM by LDH-coupled continuous assay
For test [28], the target named is T4, Pyruvate kinase PKLR. As to conditions: 10 uM.
Description: Inhibition of purified human N-terminal His-tagged PK-R at 10 uM by LDH-coupled continuous assay
For test [29], the target named is T4, Pyruvate kinase PKLR. As to conditions: 10 uM. This is another data set of the same source.
Description: Inhibition of purified human N-terminal His-tagged PK-L at 10 uM by LDH-coupled continuous assay

Converted amounts (≈) assume the structure as drawn.

As usually defined, the IC50 is the concentration that gives 50% inhibition. Turning to `COc1ccc2[nH]cc(CCc3c[nH]c4ccccc34)c2c1`, on Pyruvate kinase (read-out: IC50), the IC50 stood at 38.6 µM.

As a reminder, the inhibition is the drop in the measured response relative to a control, in per cent. For `O=[N+]([O-])c1cccc2[nH]cc(CCc3c[nH]c4ccccc34)c12`, the IC50 on Pyruvate kinase (read-out: IC50) was 5.7 µM. In addition, the inhibition in test [1] is 92.8%; at Pyruvate kinase PKM [2], 2.2%; at Pyruvate kinase PKM [3], 50.1%; against Pyruvate kinase PKLR [4], 71.8%; against Pyruvate kinase PKLR [5] it was 75.5%.

In general, MIC refers to the least concentration at which growth counts as inhibited. Turning to `N#Cc1ccc2c(CCc3c[nH]c4ccccc34)c[nH]c2c1`, the IC50 entry on Pyruvate kinase was “Not Active”. Besides, in the test with Staphylococcus aureus, the MIC is 16 µg/mL (≈ 56.1 µM).

On to `O=C(C(=O)c1c[nH]c2ccccc12)c1c[nH]c2ccccc12`, for which the IC50 on Pyruvate kinase (read-out: IC50) stood at 50.2 µM.

With `Clc1ccc2c(CCc3c[nH]c4ccccc34)c[nH]c2c1`, the IC50 at Pyruvate kinase (read-out: IC50) came out at 272 µM.

With `Clc1ccc2[nH]cc(CCc3c[nH]c4ccccc34)c2c1`, on Pyruvate kinase (read-out: IC50), the IC50 was determined as 12.5 µM. In addition, the inhibition in test [6] is 114%; at Pyruvate kinase PKM [7] it was 30.8%; against Pyruvate kinase PKM [8] it was 98.7%; against Pyruvate kinase PKLR [9], 95%; on Pyruvate kinase PKLR [10], 103%.

With `FC(F)(F)c1ccc2[nH]cc(CCc3c[nH]c4ccccc34)c2c1`, at Pyruvate kinase (read-out: IC50), the IC50 was found to be 13.3 µM. In addition, the inhibition in [6] was 88.4%; against Pyruvate kinase PKM [7], 36.7%; against Pyruvate kinase PKM [8], 95.2%; at Pyruvate kinase PKLR [9], 91.4%; at Pyruvate kinase PKLR [10], 85.4%.

Turning to `CCN(C(C)=O)c1ccc2c(CCc3c[nH]c4ccccc34)c[nH]c2c1`, the IC50 at Pyruvate kinase (read-out: IC50) was 148 µM.

As for `N#Cc1ccc2[nH]cc(CCc3c[nH]c4ccccc34)c2c1`, at Pyruvate kinase (read-out: IC50), the IC50 was 4.2 µM. Further, the inhibition against Pyruvate kinase PKM [11] was -0.5%; on Pyruvate kinase PKM [12], 1.1%; on Pyruvate kinase PKLR [13] it was 53.5%; against Pyruvate kinase PKLR [14] it was 62.4%; in [15] it was 82.9%.

Turning to `Cc1ccc2c(CCc3c[nH]c4ccccc34)c[nH]c2c1`, on Pyruvate kinase (read-out: IC50), the IC50 was 294 µM.

Take `c1ccc2c(CCc3c[nH]c4ccccc34)c[nH]c2c1`: on Pyruvate kinase (read-out: IC50), the half-inhibitory concentration (IC50) is 57.3 µM.

Regarding `Fc1ccc2[nH]cc(CCc3c[nH]c4ccccc34)c2c1`, the IC50 on Pyruvate kinase (read-out: IC50) was found to be 19.8 µM. Moreover, the inhibition in test [16] amounted to 108%; on Pyruvate kinase PKM [17] it was 55.1%; against Pyruvate kinase PKM [18] it was 85.5%; against Pyruvate kinase PKLR [19] it was 99%; at Pyruvate kinase PKLR [20], 101%.

On to `Cc1ccc2[nH]cc(CCc3c[nH]c4ccccc34)c2c1`, for which the IC50 at Pyruvate kinase (read-out: IC50) stood at 32.8 µM.

Take `O=[N+]([O-])c1ccc2c(CCc3c[nH]c4ccccc34)c[nH]c2c1`: the IC50 was determined as 0.9 µM on Pyruvate kinase (read-out: IC50); 95.9 µM against Pyruvate kinase PKM [21]; 54.6 µM at Pyruvate kinase PKM [22]; 18.2 µM against Pyruvate kinase PKLR [23]; 21.5 µM against Pyruvate kinase PKLR [24]. The inhibition turned out to be 59.6% in test [25]; 1.1% against Pyruvate kinase PKM [26]; 2.8% at Pyruvate kinase PKM [27]; 3% on Pyruvate kinase PKLR [28]; 3.3% against Pyruvate kinase PKLR [29].

As to `Fc1cc(Cl)cc2c(CCc3c[nH]c4ccccc34)c[nH]c12`, the IC50 on Pyruvate kinase (read-out: IC50) is 4.6 µM. The inhibition was found to be 88.2% in test [1]; 1.1% on Pyruvate kinase PKM [2]; 80.9% at Pyruvate kinase PKM [3]; 85.4% against Pyruvate kinase PKLR [4]; 95.7% on Pyruvate kinase PKLR [5].

On to `COc1ccc2c(CCc3c[nH]c4ccccc34)c[nH]c2c1`, for which the IC50 result against Pyruvate kinase is “Not Active”.

For the origin of these results see ChEMBL document CHEMBL3352701, “Discovery of a 1,2-bis(3-indolyl)ethane that selectively inhibits the pyruvate kinase of methicillin-resistant Staphylococcus aureus over human isoforms” (Bioorg Med Chem Lett, 2014).
